Results as given in PMC3639963, “A New Class of Small Molecule Inhibitor of BMP Signaling” (PLoS ONE, 2013).

What was measured:
Assay in all cases: Nanosyn kinase profiling
Format in all cases: biochemical
Conditions in all cases: read-out: Percentage inhibition; for inhibition at 0.1 µM: 0.1 µM inhibitor; for inhibition at 1 µM: 1 µM inhibitor
HIPK4 = target: T1, HIPK4 (Homo sapiens, UniProt Q8NE63)
T1 construct: purchased Nanosyn (enzymatic panel); SGC in-house recombinant human kinases (DSF panel); Invitrogen (ALK1-6)
T1 sequence (Q8NE63 1-616): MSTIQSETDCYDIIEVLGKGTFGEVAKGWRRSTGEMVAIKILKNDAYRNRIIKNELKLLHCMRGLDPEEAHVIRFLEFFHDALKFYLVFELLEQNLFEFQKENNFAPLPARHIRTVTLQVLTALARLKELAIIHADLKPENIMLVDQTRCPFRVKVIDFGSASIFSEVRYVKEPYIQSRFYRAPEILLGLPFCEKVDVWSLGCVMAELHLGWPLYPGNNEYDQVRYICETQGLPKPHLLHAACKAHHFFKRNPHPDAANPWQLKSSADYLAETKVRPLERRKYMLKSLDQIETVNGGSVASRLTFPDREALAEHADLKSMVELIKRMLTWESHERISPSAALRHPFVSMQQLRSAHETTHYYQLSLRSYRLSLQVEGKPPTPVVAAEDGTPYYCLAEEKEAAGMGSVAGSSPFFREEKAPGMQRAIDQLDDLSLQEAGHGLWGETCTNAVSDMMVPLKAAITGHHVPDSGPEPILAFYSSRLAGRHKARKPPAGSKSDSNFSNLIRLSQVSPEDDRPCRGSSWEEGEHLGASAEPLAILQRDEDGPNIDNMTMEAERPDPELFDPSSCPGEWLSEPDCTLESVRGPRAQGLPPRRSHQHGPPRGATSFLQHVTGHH
In short: (§1)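 Percent inhibition of each kinase was measured with the inhibitor at 0.1 µM and at 1 µM, as part of a 200-kinase human selectivity panel.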

AMPKα1 = target: T2, AMPKα1 (Homo sapiens, UniProt Q13131)
T2 construct: purchased Nanosyn (enzymatic panel); SGC in-house recombinant human kinases (DSF panel); Invitrogen (ALK1-6)
T2 sequence (Q13131 whole entry): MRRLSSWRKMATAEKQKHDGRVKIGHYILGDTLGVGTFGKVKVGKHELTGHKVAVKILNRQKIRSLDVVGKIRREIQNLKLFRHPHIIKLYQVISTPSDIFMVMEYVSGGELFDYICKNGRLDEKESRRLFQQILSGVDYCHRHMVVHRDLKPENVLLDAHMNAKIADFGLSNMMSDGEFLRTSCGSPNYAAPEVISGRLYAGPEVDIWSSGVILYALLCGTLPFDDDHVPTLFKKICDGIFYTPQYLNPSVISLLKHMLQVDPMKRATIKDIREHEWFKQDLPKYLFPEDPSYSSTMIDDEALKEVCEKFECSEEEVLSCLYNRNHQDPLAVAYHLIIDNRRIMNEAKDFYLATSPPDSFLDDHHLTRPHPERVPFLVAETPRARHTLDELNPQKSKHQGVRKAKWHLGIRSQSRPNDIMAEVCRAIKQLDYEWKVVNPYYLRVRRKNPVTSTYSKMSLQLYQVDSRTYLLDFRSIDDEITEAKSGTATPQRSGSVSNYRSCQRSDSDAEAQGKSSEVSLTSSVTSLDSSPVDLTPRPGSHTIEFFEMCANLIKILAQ
T2 sequence (Q9Y478 whole entry partner): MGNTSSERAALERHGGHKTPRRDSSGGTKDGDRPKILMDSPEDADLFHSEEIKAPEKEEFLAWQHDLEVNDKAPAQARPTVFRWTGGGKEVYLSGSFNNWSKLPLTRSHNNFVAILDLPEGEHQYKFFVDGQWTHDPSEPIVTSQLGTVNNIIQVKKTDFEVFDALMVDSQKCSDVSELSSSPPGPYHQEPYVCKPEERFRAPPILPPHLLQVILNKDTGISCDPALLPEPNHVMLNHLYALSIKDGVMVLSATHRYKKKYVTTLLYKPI
T2 sequence (P54619 whole entry partner): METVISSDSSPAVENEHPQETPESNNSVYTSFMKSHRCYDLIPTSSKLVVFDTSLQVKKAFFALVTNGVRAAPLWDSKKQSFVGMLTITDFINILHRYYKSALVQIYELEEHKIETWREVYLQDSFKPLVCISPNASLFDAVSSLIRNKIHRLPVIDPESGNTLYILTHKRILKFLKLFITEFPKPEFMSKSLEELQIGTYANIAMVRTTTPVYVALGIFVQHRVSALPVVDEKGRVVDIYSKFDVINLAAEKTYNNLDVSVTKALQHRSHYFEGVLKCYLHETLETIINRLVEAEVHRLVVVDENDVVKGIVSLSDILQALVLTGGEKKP
In short: as §1

CAMK4 = target: T3, CAMK4 (Homo sapiens, UniProt Q16566)
T3 construct: purchased Nanosyn (enzymatic panel); SGC in-house recombinant human kinases (DSF panel); Invitrogen (ALK1-6)
T3 sequence (Q16566 1-473): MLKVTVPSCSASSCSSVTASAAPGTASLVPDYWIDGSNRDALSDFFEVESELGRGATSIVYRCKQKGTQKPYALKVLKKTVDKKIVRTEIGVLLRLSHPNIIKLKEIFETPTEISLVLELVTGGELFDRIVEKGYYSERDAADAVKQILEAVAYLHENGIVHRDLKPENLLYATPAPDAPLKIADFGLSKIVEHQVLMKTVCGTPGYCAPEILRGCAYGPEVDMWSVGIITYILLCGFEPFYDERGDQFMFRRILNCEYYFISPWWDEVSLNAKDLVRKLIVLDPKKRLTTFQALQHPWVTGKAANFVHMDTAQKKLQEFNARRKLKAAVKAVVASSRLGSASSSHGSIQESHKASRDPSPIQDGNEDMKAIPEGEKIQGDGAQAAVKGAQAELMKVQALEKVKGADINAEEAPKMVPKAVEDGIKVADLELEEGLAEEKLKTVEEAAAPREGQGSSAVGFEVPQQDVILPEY
In short: as §1

CDK2/cycE = target: T4, CDK2/cycE (Homo sapiens, UniProt P24941)
T4 construct: purchased Nanosyn (enzymatic panel); SGC in-house recombinant human kinases (DSF panel); Invitrogen (ALK1-6)
In short: as §1

MSK2 = target: T5, MSK2 (Homo sapiens, UniProt O75676)
T5 construct: purchased Nanosyn (enzymatic panel); SGC in-house recombinant human kinases (DSF panel); Invitrogen (ALK1-6)
T5 sequence (O75676 whole entry): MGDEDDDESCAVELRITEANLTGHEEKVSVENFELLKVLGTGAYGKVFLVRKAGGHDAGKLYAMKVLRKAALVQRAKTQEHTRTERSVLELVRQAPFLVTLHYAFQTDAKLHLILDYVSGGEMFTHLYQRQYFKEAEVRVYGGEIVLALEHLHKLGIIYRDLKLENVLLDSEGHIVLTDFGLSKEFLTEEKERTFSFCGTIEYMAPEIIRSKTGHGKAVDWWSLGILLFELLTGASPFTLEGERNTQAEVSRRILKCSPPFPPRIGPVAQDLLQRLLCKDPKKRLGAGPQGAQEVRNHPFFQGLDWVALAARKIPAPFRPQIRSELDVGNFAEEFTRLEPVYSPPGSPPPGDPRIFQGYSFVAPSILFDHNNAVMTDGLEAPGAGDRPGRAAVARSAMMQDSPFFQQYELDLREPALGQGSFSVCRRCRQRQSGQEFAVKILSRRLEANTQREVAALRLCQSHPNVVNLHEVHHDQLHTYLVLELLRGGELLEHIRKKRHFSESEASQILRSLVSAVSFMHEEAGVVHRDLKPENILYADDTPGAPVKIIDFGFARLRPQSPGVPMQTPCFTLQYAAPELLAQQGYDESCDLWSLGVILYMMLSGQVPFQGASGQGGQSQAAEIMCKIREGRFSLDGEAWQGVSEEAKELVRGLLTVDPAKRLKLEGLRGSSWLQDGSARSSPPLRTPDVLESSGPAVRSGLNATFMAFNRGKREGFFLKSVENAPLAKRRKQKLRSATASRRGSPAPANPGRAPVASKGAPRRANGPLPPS
In short: as §1

MKNK1 = target: T6, MKNK1 (Homo sapiens, UniProt Q9BUB5)
T6 construct: purchased Nanosyn (enzymatic panel); SGC in-house recombinant human kinases (DSF panel); Invitrogen (ALK1-6)
T6 sequence (Q9BUB5 whole entry): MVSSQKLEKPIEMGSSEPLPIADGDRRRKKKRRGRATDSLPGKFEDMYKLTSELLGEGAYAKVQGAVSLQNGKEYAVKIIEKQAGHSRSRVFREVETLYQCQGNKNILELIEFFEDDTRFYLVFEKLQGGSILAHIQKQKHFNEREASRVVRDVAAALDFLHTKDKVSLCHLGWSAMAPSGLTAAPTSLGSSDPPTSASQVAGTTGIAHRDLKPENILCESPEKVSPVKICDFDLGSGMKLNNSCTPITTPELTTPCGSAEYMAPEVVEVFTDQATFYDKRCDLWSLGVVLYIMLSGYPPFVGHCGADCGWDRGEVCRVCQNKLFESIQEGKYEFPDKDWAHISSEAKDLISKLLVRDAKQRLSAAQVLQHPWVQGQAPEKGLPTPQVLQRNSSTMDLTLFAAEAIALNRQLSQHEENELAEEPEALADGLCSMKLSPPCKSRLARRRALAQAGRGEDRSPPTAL
In short: as §1

CK1γ2 = target: T7, CK1γ2 (Homo sapiens, UniProt P78368)
T7 construct: purchased Nanosyn (enzymatic panel); SGC in-house recombinant human kinases (DSF panel); Invitrogen (ALK1-6)
T7 sequence (P78368 whole entry): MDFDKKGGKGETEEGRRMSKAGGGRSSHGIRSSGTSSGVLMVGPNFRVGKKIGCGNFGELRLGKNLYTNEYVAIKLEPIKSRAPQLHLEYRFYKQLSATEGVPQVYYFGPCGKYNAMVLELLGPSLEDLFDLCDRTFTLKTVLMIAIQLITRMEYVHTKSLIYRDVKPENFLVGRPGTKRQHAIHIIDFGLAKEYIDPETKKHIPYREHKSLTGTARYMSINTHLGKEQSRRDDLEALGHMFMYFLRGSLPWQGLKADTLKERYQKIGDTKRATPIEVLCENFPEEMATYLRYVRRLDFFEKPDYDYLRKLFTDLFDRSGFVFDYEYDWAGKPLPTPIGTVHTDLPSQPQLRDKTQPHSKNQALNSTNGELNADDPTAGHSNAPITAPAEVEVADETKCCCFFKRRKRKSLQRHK
In short: as §1

PKCβ2 = target: T8, PKCβ2 (Homo sapiens, UniProt P05771)
T8 construct: purchased Nanosyn (enzymatic panel); SGC in-house recombinant human kinases (DSF panel); Invitrogen (ALK1-6)
T8 sequence (P05771 1-673 isoform P05771-2): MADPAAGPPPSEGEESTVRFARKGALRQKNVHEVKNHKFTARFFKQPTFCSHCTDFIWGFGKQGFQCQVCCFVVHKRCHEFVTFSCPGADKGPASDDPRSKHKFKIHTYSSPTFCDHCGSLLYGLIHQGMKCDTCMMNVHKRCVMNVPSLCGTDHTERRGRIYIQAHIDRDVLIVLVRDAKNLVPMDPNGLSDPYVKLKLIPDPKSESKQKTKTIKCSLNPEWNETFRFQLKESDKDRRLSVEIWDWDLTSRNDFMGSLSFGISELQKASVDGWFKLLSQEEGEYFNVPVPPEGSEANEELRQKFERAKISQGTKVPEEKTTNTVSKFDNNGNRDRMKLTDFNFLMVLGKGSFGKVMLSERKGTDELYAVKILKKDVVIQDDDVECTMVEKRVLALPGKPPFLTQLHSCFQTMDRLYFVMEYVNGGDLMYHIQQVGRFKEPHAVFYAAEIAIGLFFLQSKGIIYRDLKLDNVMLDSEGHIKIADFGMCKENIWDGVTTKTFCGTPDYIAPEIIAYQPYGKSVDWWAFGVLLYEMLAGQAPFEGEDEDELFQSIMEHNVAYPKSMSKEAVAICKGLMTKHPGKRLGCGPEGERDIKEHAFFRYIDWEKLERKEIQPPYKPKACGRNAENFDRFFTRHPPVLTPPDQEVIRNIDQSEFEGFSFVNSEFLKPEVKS
In short: as §1

PRKD3 = target: T9, PRKD3 (Homo sapiens, UniProt O94806)
T9 construct: purchased Nanosyn (enzymatic panel); SGC in-house recombinant human kinases (DSF panel); Invitrogen (ALK1-6)
T9 sequence (O94806 1-890): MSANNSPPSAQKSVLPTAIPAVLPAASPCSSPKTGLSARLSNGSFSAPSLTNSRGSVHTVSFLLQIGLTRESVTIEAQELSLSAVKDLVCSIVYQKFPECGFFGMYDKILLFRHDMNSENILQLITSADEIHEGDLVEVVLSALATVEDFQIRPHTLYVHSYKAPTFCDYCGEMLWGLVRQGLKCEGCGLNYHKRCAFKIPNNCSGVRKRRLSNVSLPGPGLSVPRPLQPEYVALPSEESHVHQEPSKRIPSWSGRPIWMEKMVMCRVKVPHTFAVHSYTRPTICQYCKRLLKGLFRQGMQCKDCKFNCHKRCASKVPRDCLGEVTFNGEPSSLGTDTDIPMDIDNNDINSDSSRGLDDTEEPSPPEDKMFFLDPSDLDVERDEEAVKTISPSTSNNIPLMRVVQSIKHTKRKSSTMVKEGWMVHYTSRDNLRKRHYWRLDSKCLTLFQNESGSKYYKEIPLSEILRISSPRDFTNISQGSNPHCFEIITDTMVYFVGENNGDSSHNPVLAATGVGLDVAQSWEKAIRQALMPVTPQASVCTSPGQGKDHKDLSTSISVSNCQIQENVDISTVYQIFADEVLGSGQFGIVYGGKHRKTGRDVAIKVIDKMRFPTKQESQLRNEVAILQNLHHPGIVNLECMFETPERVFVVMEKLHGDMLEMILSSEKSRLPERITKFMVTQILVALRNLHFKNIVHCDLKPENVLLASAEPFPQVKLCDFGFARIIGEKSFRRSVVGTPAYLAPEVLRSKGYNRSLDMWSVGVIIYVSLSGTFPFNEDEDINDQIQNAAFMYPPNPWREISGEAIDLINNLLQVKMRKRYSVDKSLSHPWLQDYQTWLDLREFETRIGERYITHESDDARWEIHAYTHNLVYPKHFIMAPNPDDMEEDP
In short: as §1

| SMILES | inhibition at 0.1 µM (HIPK4) | inhibition at 1 µM (HIPK4) | inhibition at 0.1 µM (AMPKα1) | inhibition at 1 µM (AMPKα1) | inhibition at 0.1 µM (CAMK4) | inhibition at 1 µM (CAMK4) | inhibition at 0.1 µM (CDK2/cycE) | inhibition at 1 µM (CDK2/cycE) | inhibition at 0.1 µM (MSK2) | inhibition at 1 µM (MSK2) | inhibition at 0.1 µM (MKNK1) | inhibition at 1 µM (MKNK1) | inhibition at 0.1 µM (CK1γ2) | inhibition at 1 µM (CK1γ2) | inhibition at 0.1 µM (PKCβ2) | inhibition at 1 µM (PKCβ2) | inhibition at 0.1 µM (PRKD3) | inhibition at 1 µM (PRKD3) |
| --- | --- | --- | --- | --- | --- | --- | --- | --- | --- | --- | --- | --- | --- | --- | --- | --- | --- | --- |
| COc1cc(-c2cc(-c3cccc(O)c3)cnc2N)cc(OC)c1OC [K02288, 3-[6-amino-5-(3,4,5-trimethoxy-phenyl)-pyridin-3-yl]-phenol] | 0.8% | 4.2% | -1% | 0% | -1% | -1% | 0.2% | 1.5% | -1% | 1% | 0.7% | 1.3% | -1% | 5.5% | 0% | -1% | -1% | 3.2% |
| c1ccc2c(-c3cnn4cc(-c5ccc(N6CCNCC6)cc5)cnc34)ccnc2c1 [LDN-193189] | 0% | 4.9% | 5.2% | 23% | 0.1% | 0% | 2.8% | 5.3% | 0.9% | 0.8% | 7.1% | 37% | 1.6% | 3.9% | 1% | 1.8% | 3.2% | 13% |
